# Results reported in ChEMBL document CHEMBL1151116, “In vitro study of the anticholinergic and antihistaminic activities of protopine and some derivatives” (J Nat Prod, 1988).
# Experiments:
# Ileum [1] = experiment: Inhibition of acetylcholine-induced contraction in guinea pig ileum preincubated for 5 mins before acetylcholine challenge; type: functional, tissue-based, Cavia porcellus
# Ileum [2] = experiment: Inhibition of acetylcholine-induced contraction in guinea pig ileum at 0.28 to 2.8 uM preincubated for 5 mins before acetylcholine challenge; type: functional, Cavia porcellus; set-up: scale not given: the % may be the effect or the level left
structure (smiles),measurement,setting,value
CN1[C@@H]2CC[C@H]1C[C@@H](OC(=O)C(CO)c1ccccc1)C2 (stereo partly drawn) [ATROPINE],Kb,"Ileum [1]; Cavia porcellus, Ileum, read-out: pA2 (converted)",2.04 nM
C[N+]1([O-])CCc2cc3c(cc2C(=O)Cc2ccc4c(c2C1)OCO4)OCO3 (stereo not drawn),Activity,Ileum [2],20%
COc1ccc(Cc2nccc3cc(OC)c(OC)cc23)cc1OC [PAPAVERINE],pD2,Ileum [1],5.08
